Measurements published in paper PMC12323867 (RSC Medicinal Chemistry, 2025).
Entries after “also recorded” stand apart in the source; their conditions may differ. Where two headings read alike, the source gives them in different places.

What was measured:
[1] = system: HCT116 cells; experiment: CTG cell viability assay; type: cell-based, human; conditions: HCT116, CellTiter-Glo, 0.0041-10 uM, 24-48 h (Fig. S3)
Method: 2.4. CTG cell viability assays
HCT116 cells were seeded onto 96-well plates at a density of 2000 cells/well and allowed 24 h to settle. Cells were then treated with LSD1 inhibitors (0.0041-10 uM) alongside WT, DMSO and cell free control wells for 24-48 h. After this time, plates were equilibrated to RT for 30 mins, then CellTiter-Glo (Promega, G9242) reagent (5 uL/100 uL media) was added. Cells were lysed on an orbital shaker for 10 mins, then incubated at RT for 2 mins to allow luminescence to stabilise, following which luminescence was recorded on a HiDEX Sense microplate reader. To obtained plotted values, luminescence of each tested well was divided by that of the DMSO control, which were plotted against concentration using GraphPad Prism. […] was applied to obtain apparent IC50 values where possible.
Figure S3. Cell viability dose response curves
(1 picture or pasted object on this page, not shown here)

[2] = system: H3K4me2 in HCT116 cells; experiment: Histone methylation H3K4me2 by western blot; type: cell-based, human; conditions: HCT116, TCP series conditions (0.2–20 μM)
Method: We next screened 25–33 and SP2509 over a concentration range of 0.1–10 μM in HCT116 cells (obtained from ATCC, CCL-247) and determined LSD1 abundance after 24 hours with an antibody for LSD1 (Fig. S4 ^†). […] Using the same conditions, we also determined the effects of SP2509, 25, 27, 28, 30 and 31 on histone H3 lysine 4 dimethyl (H3K4me2) a validated substrate for LSD1 using a specific antibody for H3K4me2 (Fig. S4 ^†).
Compounds 39–41, 49, 52 and 54 were screened for LSD1 degradation in HCT116 cells using a specific antibody for LSD1. This was performed side-by-side with TCP. Compounds were tested at concentration ranges of 0.2–20 μM and LSD1 abundance was quantified at 24 hours (Fig. S5 ^†). 49, 52 and 54 were also evaluated at 48 and 72 hours. […] We also determined the effects of these compounds on the histone methyl marker H3K4me2 (Fig. S5 and S6 ^†).
(§1) 2.5 Protocols for LSD1 degradation and histone methylation in HCT116 cells HCT116 human colon carcinoma cells were grown in Dulbecco’s Modified Eagle Medium (DMEM) supplemented with Fetal Bovine Serum (FBS, 10% final concentration) and 1x glutamine/penicillin/streptomycin. Cells were incubated at 37 °C and 5% CO2. Cells were treated with compounds (0.1-20 µM) with a final DMSO volume of 0.04%. DMSO (0.04%) treated and untreated (WT) cells were included as controls.
(§2) HCT116 cells were seeded into six well plates (400000 cells per well) and after requisite compound treatment time (24h, 48h, 72h) cells were harvested and either snap-frozen in liquid nitrogen or lysed in lysis buffer (50mM Tris-HCl, 150 mM NaCl, 0.5% NP-40, 0.5% Triton X-100 + protease inhibitor) on ice for 30 mins. This was centrifuged (15000 rpm, 4 °C, 15 mins) and the supernatant collected.
(§3) H2SO4 (0.4 M, equal volume) was added to the pellets for histone extraction and the tubes incubated overnight at 4 °C. Following this, the histone extract was centrifuged (15000 rpm, 4 °C, 15 mins) and the supernatant collected. Protein concentrations of whole cell extract were quantified via Bradford Assay using BIO-RAD Protein Assay Dye Reagent Concentrate.
(§4) Western blots were run on NuPAGE 4-12% Bis-Tris gels, with 30 µg of protein (whole cell extract) or an equivalent volume of histone extract loaded per lane, with all extracts dyed with 4x NuPAGE LDS Sample Buffer. PageRuler Plus Prestained Ladder was used as a reference. Gel electrophoresis was carried out at 140 V for 60-90 mins, following which the proteins were transferred onto nitrocellulose membrane at 30 V for 60 mins. Membranes were blocked in LI-COR Intercept Blocking Buffer overnight at RT on a roller, following which the membrane was probed with primary antibodies for 1 h at RT. The membrane was washed with PBS + 0.1% Tween (3 x 10 mins), then incubated with secondary antibodies for 50 mins at RT. The membrane was washed again (PBS Tween 2 x 10 mins, PBS 1 x 10 mins) following which the blot was visualised with the Odyssey Infrared Imaging System. Image processing and quantification was performed with ImageStudio Lite. […]
(§5) a-tubulin (mouse) – Sigma, t5168 (1:10000 dilution)

[3] = molecular target: T1, HDAC1-CoREST-LSD1 complex (Homo sapiens, UniProt O60341); experiment: LSD1 HRP-coupled demethylase assay, TCP analogues; type: biochemical; conditions: for inhibition at 50 µM: read-out: LSD1 inhibition at 50 μM
T1 construct: full length native LSD1 (UniProt ID: O60341); made in house; host or cells: HEK 293F cells (co-transfection, pcDNA3 vectors)
Method: We then evaluated LSD1 inhibition in the LSD1-HDAC1-CoREST complex using the established horseradish peroxidase (HRP) assay.[8]
2. Supplementary Information: Biology
2.1. LSD-HDAC1-CoREST expression and purification
Lysis Buffer (Buffer A) Wash Buffer (Buffer B)
• 50 mM Tris/Cl pH 7.5 • 50 mM Tris/Cl pH 7.5
• 50 mM Potassium Acetate • 50 mM Potassium Acetate […]
Cleavage Buffer (Buffer C) Gel Filtration Buffer (Buffer D)
• 50 mM Tris/Cl pH 7.5 Filtered at vacuum.
• 50 mM Potassium Acetate • 50 mM Tris/Cl pH 7.5
• 5 % v/v Glycerol • 50 mM Potassium Acetate
• 0.5 mM tris(2- • 0.5 mM TCEP carboxyethyl)phosphine (TCEP)
The CoREST ternary complex was comprised of full length native LSD1 (UniProt ID: O60341), full length HDAC1 (UniProt ID: Q13547) and N-terminally truncated RCOR1 (86-485aa) (UniProt ID:
Q9UKL0). Protein constructs were cloned into pcDNA3 vector. The RCOR1 constructs contained an N-terminal (His)10(Flag)3 tag followed by a Tev protease cleavage site. The constructs for ternary complex were co-transfected into suspension-grow HEK 293F cells (Thermofisher Scientific) with polyethylenimine (PEI) (Sigma) and harvested after 48 hours. This section of the procedure was carried out as described previously in literature.11,12
Cell pellets from 1.2 L culture were defrosted, and buffer A (30 mL) was added. The solution was sonicated (Soniprep 150) in an beaker of ice using a 9 mm probe at 10 ampules; operated with 10 […]
Components and concentrations for the HRP-coupled demethylase assay […]
The assay components are shown at their final concentrations per well in the table above. CoREST complex (HDAC 1/RCOR1/LSD1) was added to the assay buffer alongside either DMSO or the relevant inhibitor at the desired concentration on black-walled 96 well plates. Alongside this was another control, with DMSO but no CoREST or inhibitor. Plates were spun to 3000 rpm between each addition of a reagent. Plates were incubated at 20 °C for 30 mins, following which HRP/Amplex Ultrared (1:1 mixture) and peptide was added. Plates were spun, then read on an PerkinElmer 2030 Explorer plate reader, with excitation of 530 nm and […] of 590 nm, with 7 readings taken over […]
Components, where bought in, are listed below:
HRP – Pierce™ Horseradish Peroxidase, Invitrogen
H3K4me2 peptide – Histone H3 dimethyl lysine-4 peptide, Enzo Life Sciences Amplex UltraRed, ThermoFisher Scientific
To the assay buffer was added HRP/AMP in each well to concentrations equal to those in above, following which hydrogen peroxide solution (diluted from 3% hydrogen peroxide solution into a 20 mM stock) was added, in a 1 in 3 dilution series with final concentrations starting from 3 mM.
Negative control wells contained either 100% buffer or as above with no hydrogen peroxide solution.

[4] = molecular target: T2, LSD1 in HCT116 cells (Homo sapiens, UniProt O60341); experiment: LSD1 degradation (LSD1 abundance) by western blot; type: cell-based
T2 construct: host or cells: HCT116
Method: Using the same conditions, we also determined the effects of SP2509, 25, 27, 28, 30 and 31 on histone H3 lysine 4 dimethyl (H3K4me2) a validated substrate for LSD1 using a specific antibody for H3K4me2 (Fig. S4 ^†).
Compounds were tested at concentration ranges of 0.2–20 μM and LSD1 abundance was quantified at 24 hours (Fig. S5 ^†). 49, 52 and 54 were also evaluated at 48 and 72 hours. […] We also determined the effects of these compounds on the histone methyl marker H3K4me2 (Fig. S5 and S6 ^†).
as §1, with “with compounds (0.1-20 µM) with a final DMSO volume of 0.04%. DMSO (0.04%) treated and untreated (WT) cells were included as controls.” left out
untreated (WT) cells were included as controls.
as §2
as §3, with “Concentrate. […]” for “Concentrate.”
as §4, with “or” for “Western blots were run on NuPAGE 4-12% Bis-Tris gels, with 30 µg of protein (whole cell extract) or”
as §5

[5] = system: LSD1; parameters: method as in PMID 38742921; conditions: cited from earlier work
[6] = HCT116, 0.2–20 μM, 24 hours, LSD1 antibody
[7] = complex 50 nM, mean ± SD from three replicates

## N[C@H]1CC[C@H](N[C@@H]2C[C@H]2c2ccccc2)CC1 [ORY1001, reference compound]
[1]
  cytotoxic effects in cells: not observed
[2]
  H3K4me2 histone methyl marker: neither did we observe changes; also recorded: did not increase H3K4me2 levels
[3]
  inhibition at 50 µM: 100%

## Cc1ncsc1-c1ccc(CNC(=O)[C@@H]2C[C@@H](O)CN2C(=O)[C@@H](NC(=O)COCCOCCOCCNC(=O)c2ccc([C@@H]3C[C@H]3N)cc2)C(C)(C)C)cc1 [compound 49]
[4]; [6]
  LSD1 degradation: no degradation
[4]; HCT116, 48 and 72 hours
  LSD1 degradation: no degradation
[2]
  H3K4me2 histone methyl marker: no changes
[3]; [7]
  IC50: 63 nM
[3]; single concentration 50 μM, complex 50 nM, compared to no compound treatment control
  inhibition at 50 µM: 100%

## COc1ccc(-c2c(-c3ccc(C#N)c(F)c3)nc(N3CCC(N)CC3)n(C)c2=O)cc1F [CC-90011]
[5]
  ability to increase H3K4me2 on peptides and nucleosomes: increased H3K4me2 levels

## N[C@@H]1C[C@H]1c1ccccc1 (racemic) [TCP, tranylcypromine]
[5]
  ability to increase H3K4me2 on peptides and nucleosomes: increased H3K4me2 levels
[1]
  cytotoxic effects in cells: not observed
[2]
  H3K4me2 histone methyl marker: neither did we observe changes; also recorded: did not increase H3K4me2 levels

## N[C@@H]1C[C@H]1c1ccc(C(=O)NCCc2ccc(OCCCCCCCCCCCC(=O)NCCNc3cccc4c3C(=O)N(C3CCC(=O)NC3=O)C4=O)cc2)cc1 (some centres unmarked) [compound 54]
[4]; [6]
  LSD1 degradation: no degradation
[4]; HCT116, 48 and 72 hours
  LSD1 degradation: no degradation
[2]
  H3K4me2 histone methyl marker: no changes
[3]; complex 50 nM
  IC50: 280 nM
[3]; [7]
  IC50: 282 ± 40 nM
